Publication PMC2708596 (Toxicological Sciences, 2009)
Where two headings read alike, the source gives them in different places.

Experiments:
[1] = Male rat, Lung, ref Punt et al. (2008), cited from earlier work
[2] = PBBK model for estragole in human; conditions: 0.001 mg/kg bw, after 8 h, compared with Sangster et al., 1987
[3] = Male rat, Kidney, ref Punt et al. (2008), cited from earlier work
[4] = Male rat, Liver; estragole metabolites; ref Punt et al. (2008); cited from earlier work
[5] = Phase I metabolism of estragole by human liver microsomes; type: in vitro ADME
[6] = rats, 0.05 mg/kg bw; ref Anthony et al., 1987; cited from earlier work
[7] = humans, ref Sangster et al., 1987, cited from earlier work

SMILES | Scaled Vmax (app) ([1]; microsomal protein yield 20 mg/g) | Catalytic efficiency [1] | Km ([1]; read-out: Km (app)) [nM] | predicted formation compared with the reported in vivo level [2] | Scaled Vmax (app) ([3]; microsomal protein yield 7 mg/g) | Catalytic efficiency [3] | Km ([3]; read-out: Km (app)) [nM] | Catalytic efficiency [4] | Scaled Vmax (app) [4] | Scaled Vmax (app) ([5]; Human, Liver, estragole metabolites, microsomal protein yield 32 mg/g) | Catalytic efficiency ([5]; Human, Liver, estragole metabolites, scaled Vmax (app)/Km(app)) | In vitro catalytic efficiency ([5]; Vmax (app)/Km(app) × 1000 μl/ml) | oral dose accounted for by O-demethylation [6] | dose excreted as 14CO2 (level of O-demethylation) ([7]; 0.001 mg/kg bw, after 8 h) | radioactivity excreted in the urine ([7]; 0.001 mg/kg bw, after 8 h) | radioactivity excreted in the urine ([7]; 0.001 mg/kg bw, after 24 h) | radioactivity excreted in the urine ([7]; 0.001 mg/kg bw, after 48 h) | radioactivity not recovered ([7]; within 48 h) [%]
C=CCc1ccc(O)cc1 [4-allylphenol] | 0.8 μmol h^−1 (g tissue)^−1 | 1600 ml h^−1 (g liver)^−1 | 500 | fourfold lower | 0.2 μmol h^−1 (g tissue)^−1 | 400 ml h^−1 (g liver)^−1 | 500 | 3 ml h^−1 (g liver)^−1 | 1.6 μmol h^−1 (g tissue)^−1 | 0.7 μmol h^−1 (g tissue)^−1 | 2 ml h^−1 (g liver)^−1 | 1.3 μl min^−1 (mg microsomal protein)^−1 |  |  |  |  |  | 
C=CCc1ccc(OC)cc1 [estragole, 4-allylanisol] |  |  |  |  |  |  |  |  |  |  |  |  | 53 % of the oral dose | ~10 % of the dose | 31–37 % of the dose | 47–53 % of the dose | 54–62 % of the dose | ~30
